Laboratory results published in patent US20230030989A1, “JUST SUNSCREEN” (Pouch Pac Innovations, LLC, priority 2019, published 2023).

Details: in vivo
Text: Subjects reported to the testing facility, at which time inclusion/exclusion criteria was reviewed and Informed Consent obtained. Upon verification of eligibility to enroll, the test articles were applied to the upper arm of each subject. The test articles were applied to the Webril□ disks according to a dose regime (see Section 5.1). The skin was marked with dots of crystal violet applied on either side of the top disk and below the bottom disk of the strip to enable exact location of subsequent patches. Each subject was asked to avoid the dye marks during washing and to keep the patches dry.
Subjects received patches containing the test article and two standard controls which were applied as 0.2 ml/0.2 g samples in one of five randomly assigned orders on the upper arm. The sample order for each subject was documented and maintained throughout the study in the form of a color-coded identification card. Subjects were instructed to keep the patches dry and in place for 23 hours then to remove and discard them and to return to the test center one hour later. Patches were applied on Days 1, 2, 3 and 4. Patches were applied to the same site on each day unless a reaction stronger than a mild erythema (i.e. greater than a score of 1.5 (Appendix 5)) was present in which case the patch strip was cut and the relevant patch (es) not reapplied. Assessment of patch sites was immediately before application of the next patch on Days 2, 3, 4 and on Day 5. After removal of the patches the test sites were wiped with a damp tissue to remove any remaining product.

patch site score Day 2, MEAN: 0.08 | patch site score Day 3, MEAN: 0.37 | patch site score Day 4, MEAN: 0.63 | patch site score Day 5, MEAN: 0.82
Structure (SMILES): CCCCCCCCCCCCOS(=O)(=O)[O-].[Na+] [0.3% W/V SLS]
